# According to US7862842B2, “Use of cationic preservative in food products” (priority 2001, dated 2011):
# Columns and labels:
# [1] = system: Arthrobacter oxydans ATCC 8010; assay: minimum inhibitory concentration of LAE; type: cell-based; conditions: Gram + Bacteria
# [2] = system: Bacillus cereus var mycoide ATCC 11778; assay: minimum inhibitory concentration of LAE; type: cell-based; conditions: Gram + Bacteria
# [3] = system: Bacillus subtilis ATCC 6633; assay: minimum inhibitory concentration of LAE; type: cell-based; conditions: Gram + Bacteria
# [4] = system: Clostridium perfringens ATCC 77454; type: cell-based; conditions: Gram + Bacteria
# [5] = system: Listeria monocytogenes ATCC 7644; assay: minimum inhibitory concentration of LAE; type: cell-based; conditions: Gram + Bacteria
# [6] = system: Staphylococcus aureus ATCC 6538; assay: minimum inhibitory concentration of LAE; type: cell-based; conditions: Gram + Bacteria
# [7] = system: Micrococcus luteus ATCC 9631; assay: minimum inhibitory concentration of LAE; type: cell-based; conditions: Gram + Bacteria
# [8] = system: Lactobacillus delbrueckii ssp lactis CECT 372; assay: minimum inhibitory concentration of LAE; type: cell-based; conditions: Gram + Bacteria
# [9] = system: Leuconostoc mesenteroides CETC 912; assay: minimum inhibitory concentration of LAE; type: cell-based; conditions: Gram + Bacteria
# [10] = system: Alcaligenes faecalis ATCC 8750; assay: minimum inhibitory concentration of LAE; type: cell-based; conditions: Gram − Bacteria
# [11] = system: Bordetella bronchiseptica ATCC 4617; assay: minimum inhibitory concentration of LAE; type: cell-based; conditions: Gram − Bacteria
# [12] = system: Citrobacter freundii ATCC 22636; assay: minimum inhibitory concentration of LAE; type: cell-based; conditions: Gram − Bacteria
# [13] = system: Enterobacter aerogenes CECT 689; assay: minimum inhibitory concentration of LAE; type: cell-based; conditions: Gram − Bacteria
# [14] = system: Escherichia coli ATCC 8739; assay: minimum inhibitory concentration of LAE; type: cell-based; conditions: Gram − Bacteria
# Escherichia coli 0157H7 = assay: minimum inhibitory concentration of LAE; type: cell-based; conditions: Gram − Bacteria
# [15] = system: Klebsiella pneumoniae var pneumoniae CECT 178; assay: minimum inhibitory concentration of LAE; type: cell-based; conditions: Gram − Bacteria
# [16] = system: Proteus mirabilis CECT 170; assay: minimum inhibitory concentration of LAE; type: cell-based; conditions: Gram − Bacteria
# [17] = system: Pseudomonas aeruginosa ATCC 9027; assay: minimum inhibitory concentration of LAE; type: cell-based; conditions: Gram − Bacteria
# [18] = system: Salmonella typhimurium ATCC 16028; assay: minimum inhibitory concentration of LAE; type: cell-based; conditions: Gram − Bacteria
# [19] = system: Serratia marcenses CECT 274; assay: minimum inhibitory concentration of LAE; type: cell-based; conditions: Gram − Bacteria
# [20] = system: Mycobacterium phlei ATCC 41423; assay: minimum inhibitory concentration of LAE; type: cell-based; conditions: listed under Gram − Bacteria
# [21] = system: Aspergillus niger ATCC14604; assay: minimum inhibitory concentration of LAE; type: cell-based; conditions: Fungi
# [22] = system: Aureobasidium pullulans ATCC 9348; assay: minimum inhibitory concentration of LAE; type: cell-based; conditions: Fungi
# [23] = system: Gliocadium virens ATCC 4645; assay: minimum inhibitory concentration of LAE; type: cell-based; conditions: Fungi
# [24] = system: Chaetonium globosum ATCC 6205; assay: minimum inhibitory concentration of LAE; type: cell-based; conditions: Fungi
# [25] = system: Penicillium chrysogenum CECT 2802; assay: minimum inhibitory concentration of LAE; type: cell-based; conditions: Fungi
# [26] = system: Penicillium funiculosum CECT 2914; assay: minimum inhibitory concentration of LAE; type: cell-based; conditions: Fungi
# [27] = system: Candida albicans ATCC 10231; assay: minimum inhibitory concentration of LAE; type: cell-based; conditions: Yeast
# [28] = system: Rhodotorula rubra CECT 1158; assay: minimum inhibitory concentration of LAE; type: cell-based; conditions: Yeast
# [29] = system: Saccharomyces cerevisiae ATCC 9763; assay: minimum inhibitory concentration of LAE; type: cell-based; conditions: Yeast
# Aerobe Bacteria [30] = assay: microbiological evolution in semi-preserved codfish in oil; type: cell-based; conditions: LAE 100 ppm, 4° C.
# Experimental: (§1) The determination of the microbiological population is carried out according to the ISO standards.
# (§2) The samples are treated by dilution in buffer peptone with the appropriate neutralising agent of the preservative. The culture media used for counting the microorganisms are: Soya triptone agar (32-35° C., 48 hours) for the determination of mesophilic bacteria; Sabouraud agar with chloramfenicol (25° C., 3-5 days) for fungi and yeast; Violet red bile glucose agar (32-35° C., 24 hours) for enterobacteria; Soya triptone agar (17° C., 5 days) for psychrotrophic bacteria.
# (§3) The sample LAE was added to the oil assayed at a concentration of 100 ppm and its microbiological evolution at 4° C. was compared against a control.
# Mould & yeast [31] = assay: as above; type: cell-based; conditions: LAE 100 ppm, 4° C.
# Experimental: as §1, §2, §3
# Aerobe Bacteria [32] = assay: evolution of bacteria in a chicken product; type: cell-based; conditions: LAE 150 ppm, 10° C.
# Experimental: as §1, §2
# (§4) The sample LAE was added to at a concentration of 150 ppm and the evolution of aerobe and psychrotrophic bacteria at 10° C. was compared against a control.
# Psychro. Bacteria = assay: evolution of bacteria in a chicken product; type: cell-based; conditions: LAE 150 ppm, 10° C.
# Experimental: as §1, §2, §4
# Aerobe Bacteria [33] = assay: microbiological evolution in a carbonated orange beverage; type: cell-based; conditions: LAE 100 ppm, 17° C.
# Experimental: as §1, §2
# (§5) The sample LAE was added to at a concentration of 100 ppm and its microbiological evolution at 17° C. was compared against a control.
# Mould & yeast [34] = assay: as above; type: cell-based; conditions: LAE 100 ppm, 17° C.
# Experimental: as §1, §2, §5
# Aerobe Bacteria [35] = assay: microbiological evolution in a blackberry juice; type: cell-based; conditions: LAE 60 ppm, 34° C.
# Experimental: as §1, §2
# (§6) The sample LAE was added to at a concentration of 60 ppm and its microbiological evolution at 34° C. was compared against a control.
# Mould & yeast [36] = assay: microbiological evolution in a blackberry juice; type: cell-based; conditions: LAE 60 ppm, 34° C.
# Experimental: as §1, §2, §6
# Aerobe Bacteria [37] = assay: microbiological evolution in custard; type: cell-based; conditions: LAE 100 ppm, 25° C.
# Experimental: as §1, §2
# (§7) The sample LAE was added to at a concentration of 100 ppm and its microbiological evolution at 25° C. was compared against a control.
# Anaerobe Bacteria = assay: microbiological evolution in custard; type: cell-based; conditions: LAE 100 ppm, 25° C.
# Experimental: as §1, §2, §7
# Aerobe Bacteria [38] = assay: microbiological evolution in fairy cakes; type: cell-based; conditions: LAE 80 ppm, 25° C.
# Experimental: as §1, §2
# (§8) The sample LAE was added to at a concentration of 80 ppm and its microbiological evolution at 25° C. was compared against a control.
# Mould & yeast [39] = assay: microbiological evolution in fairy cakes; type: cell-based; conditions: LAE 80 ppm, 25° C.
# Experimental: as §1, §2, §8
# Aerobe Bacteria [40] = assay: microbiological evolution in veal stew; type: cell-based; conditions: LAE 100 ppm, 10° C.
# Experimental: as §1, §2
# (§9) The sample LAE was added to at a concentration of 100 ppm and its microbiological evolution at 10° C. was compared against a control.
# Enterobacteria [41] = assay: microbiological evolution in veal stew; type: cell-based; conditions: LAE 100 ppm, 10° C.
# Experimental: as §1, §2, §9
# Mould & yeast [42] = assay: microbiological evolution in veal stew; type: cell-based; conditions: LAE 100 ppm, 10° C.
# Experimental: as §1, §2, §9
# Aerobe Bacteria [43] = assay: microbiological evolution in ketchup; type: cell-based; conditions: LAE 100 ppm, 25° C.
# Experimental: as §1, §2, §7
# Enterobacteria [44] = assay: microbiological evolution in ketchup; type: cell-based; conditions: LAE 100 ppm, 25° C.
# Experimental: as §1, §2, §7
# Mould & yeast [45] = assay: microbiological evolution in ketchup; type: cell-based; conditions: LAE 100 ppm, 25° C.
# Experimental: as §1, §2, §7
# metabolism in rats = type: in vivo
# toxicological studies = type: in vivo; conditions: animals and humans
smiles,measurement,setting,value
"CCCCCCCCCCCC(=O)N[C@@H](CCCN=C(N)N)C(=O)OCC.Cl [LAE, ethyl ester of the lauramide of the arginine monohydrochloride]",M.I.C.,[1],64 ppm
same,M.I.C.,[2],32 ppm
same,M.I.C.,[3],16 ppm
same,M.I.C.,[4],16 ppm
same,M.I.C.,[5],10 ppm
same,M.I.C.,[6],32 ppm
same,M.I.C.,[7],128 ppm
same,M.I.C.,[8],16 ppm
same,M.I.C.,[9],32 ppm
same,M.I.C.,[10],64 ppm
same,M.I.C.,[11],128 ppm
same,M.I.C.,[12],64 ppm
same,M.I.C.,[13],32 ppm
same,M.I.C.,[14],32 ppm
same,M.I.C.,Escherichia coli 0157H7,20 ppm
same,M.I.C.,[15],32 ppm
same,M.I.C.,[16],32 ppm
same,M.I.C.,[17],64 ppm
same,M.I.C.,[18],32 ppm
same,M.I.C.,[19],32 ppm
same,M.I.C.,[20],2 ppm
same,M.I.C.,[21],32 ppm
same,M.I.C.,[22],16 ppm
same,M.I.C.,[23],32 ppm
same,M.I.C.,[24],16 ppm
same,M.I.C.,[25],128 ppm
same,M.I.C.,[26],16 ppm
same,M.I.C.,[27],16 ppm
same,M.I.C.,[28],16 ppm
same,M.I.C.,[29],32 ppm
same,Aerobe Bacteria count,Aerobe Bacteria [30]; 0 days,7.6 · 10^3 cfu/g
same,Aerobe Bacteria count,Aerobe Bacteria [30]; 14 days,1.0 · 10^4 cfu/g
same,Aerobe Bacteria count,Aerobe Bacteria [30]; 43 days,8.5 · 10^4 cfu/g
same,Mould & yeast count,Mould & yeast [31]; 0 days,3.0 · 10^2 cfu/g
same,Mould & yeast count,Mould & yeast [31]; 14 days,5.4 · 10^3 cfu/g
same,Mould & yeast count,Mould & yeast [31]; 43 days,8.2 · 10^3 cfu/g
same,Aerobe Bacteria count,Aerobe Bacteria [32]; 0 days,1.2 · 10^5 cfu/g
same,Aerobe Bacteria count,Aerobe Bacteria [32]; 14 days,4.2 · 10^5 cfu/g
same,Aerobe Bacteria count,Aerobe Bacteria [32]; 43 days,6.1 · 10^5 cfu/g
same,Psychro. Bacteria count,Psychro. Bacteria; 0 days,3.0 · 10^4 cfu/g
same,Psychro. Bacteria count,Psychro. Bacteria; 14 days,7.1 · 10^4 cfu/g
same,Psychro. Bacteria count,Psychro. Bacteria; 43 days,6.8 · 10^4 cfu/g
same,Aerobe Bacteria count,Aerobe Bacteria [33]; 0 days,4.3 · 10^2 cfu/g
same,Aerobe Bacteria count,Aerobe Bacteria [33]; 14 days,1.0 · 10^2 cfu/g
same,Mould & yeast count,Mould & yeast [34]; 0 days,<10 cfu/g
same,Mould & yeast count,Mould & yeast [34]; 14 days,<10 cfu/g
same,Aerobe Bacteria count,Aerobe Bacteria [35]; 0 days,4.0 · 10^2 cfu/g
same,Aerobe Bacteria count,Aerobe Bacteria [35]; 14 days,2.4 · 10^3 cfu/g
same,Mould & yeast count,Mould & yeast [36]; 0 days,<10 cfu/g
same,Mould & yeast count,Mould & yeast [36]; 14 days,<10 cfu/g
same,Aerobe Bacteria count,Aerobe Bacteria [37]; 0 days,<10 cfu/g
same,Aerobe Bacteria count,Aerobe Bacteria [37]; 5 days,1.1 · 10^3 cfu/g
same,Anaerobe Bacteria count,Anaerobe Bacteria; 0 days,<10 cfu/g
same,Anaerobe Bacteria count,Anaerobe Bacteria; 5 days,4.1 · 10^2 cfu/g
same,Aerobe Bacteria count,Aerobe Bacteria [38]; 0 months,<10 cfu/g
same,Aerobe Bacteria count,Aerobe Bacteria [38]; 3 months,1.1 · 10^2 cfu/g
same,Mould & yeast count,Mould & yeast [39]; 0 months,<10 cfu/g
same,Mould & yeast count,Mould & yeast [39]; 3 months,<10 cfu/g
same,Aerobe Bacteria count,Aerobe Bacteria [40]; 0 days,<10 cfu/g
same,Aerobe Bacteria count,Aerobe Bacteria [40]; 14 days,<10 cfu/g
same,Enterobacteria count,Enterobacteria [41]; 0 days,<10 cfu/g
same,Enterobacteria count,Enterobacteria [41]; 14 days,<10 cfu/g
same,Mould & yeast count,Mould & yeast [42]; 0 days,<10 cfu/g
same,Mould & yeast count,Mould & yeast [42]; 14 days,<10 cfu/g
same,Aerobe Bacteria count,Aerobe Bacteria [43]; 0 days,<10 cfu/g
same,Aerobe Bacteria count,Aerobe Bacteria [43]; 14 days,2.2 · 10^3 cfu/g
same,Enterobacteria count,Enterobacteria [44]; 0 days,<10 cfu/g
same,Enterobacteria count,Enterobacteria [44]; 14 days,<10 cfu/g
same,Mould & yeast count,Mould & yeast [45]; 0 days,<10 cfu/g
same,Mould & yeast count,Mould & yeast [45]; 14 days,1.4 · 10^1 cfu/g
same,absorption and metabolism,metabolism in rats,fast absorption and metabolisation into naturally-occurring amino acids and the fatty acid lauric acid
same,toxicity,toxicological studies,completely harmless to animals and humans
